Drawing on patent publication US11566025B2, “Viral replication inhibitors” (Katholieke Universiteit Leuven, priority 2013, dated 2023), this text covers EC50 and CC50 for 32 molecules.

Holding throughout (assay type): cell-based
Data set [1] deals with DENV-3 strain H87 prototype. The data set is described as follows: Antiviral activity against DENV-3 in Vero-B cells (viral RNA load by RT-qPCR). Conditions: Dengue virus.
The next data set deals with DENV-2 NGC. Put plainly: Antiviral activity against DENV-2 in Vero-B cells (viral RNA load by RT-qPCR). Particulars: Dengue virus, DENV2, 96 h; DENV-2, Vero-B cells, inhibition of viral RNA replication by 50%, 4 days.
Data set [2] relates to DENV-1 Djibouti strain D1/H/IMTSSA/98/606. The data set is described as follows: Antiviral activity against DENV-1 in Vero-B cells (viral RNA load by RT-qPCR). Particulars: Dengue virus, DENV1, 168 h; DENV-1, Vero-B cells, inhibition of viral RNA replication by 50%, 7 days. A general note: Real-time PCR tracks product formation cycle by cycle.
In a further data set the test system is Vero-B cells. The data set is described as follows: in vitro. Particulars: African green monkey. As for the experimental part:
(§1) Potential cytotoxic effects of the compounds were evaluated in uninfected quiescent Vero-B or Vero-M cells. Cells were seeded at 5×10^4 cells/well in a 96-well plate in the presence of two-fold serial dilutions (ranging from 50 μg/mL-0.004 μg/mL) of compound and incubated for 4 to 7 days. Culture medium was discarded and 100 μL 3-(4,5-dimethylthiazol-2-yl)-5-(3-carboxymethoxyphenyl)-2-(4-sulfophenyl)-2H-tetrazolium/phenazinemethosuIfate (MTS/PMS; Promega, Leiden, The Netherlands) in PBS was added to each well. Following a 2-hour incubation period at 37° C., the optical density was determined at 498 nm. Cytotoxic activity was calculated using the following formula: % cell viability=100× (ODcompound/ODCC), where ODcompound and ODCC correspond to the optical density at 498 nm of the uninfected cell cultures treated with compound and that of uninfected, untreated cell cultures, respectively. The 50% cytotoxic concentration (i.e., the concentration that reduces the total cell number with 50%; CC50) was calculated using linear interpolation.

A further data set is described as follows: in vitro. Particulars: African green monkey. As for the experimental part: as §1
A further data set relates to DENV-4 strain H241. Put plainly: Antiviral activity against DENV-4 in Vero-M cells (viral RNA load by RT-qPCR). Conditions: Dengue virus, DENV4, 120 h; DENV-4, Vero-M cells, inhibition of viral RNA replication by 50%, 5 days.
The mark [3] stands for this setting: DENV3, 168 h, DENV-3, Vero-B cells, inhibition of viral RNA replication by 50%, 7 days, read-out: EC50.

Like-named read-outs stand apart in the source and are kept apart here.

On to `COc1cccc(NC(C(=O)c2nn(C)cc2-c2ccccc2)c2ccccc2)c1` (stereo not drawn) [CPD-001], for which the EC50 (commonly the concentration that produces a half-maximal response) in data set [1] (setting [3]) came to 2120 nM; in the data set with DENV-2 NGC, 323 nM; in data set [2], 2640 nM. The CC50 (as a rule, the concentration that lowers cell viability or growth by half) in the data set on Vero-B cells is above 126000 nM; in the data set “in vitro” (CC50 (μM)) it was above 125 µM.

Consider `COc1cccc(NC(C(=O)c2nn(C)cc2-c2ccc(F)cc2)c2ccccc2)c1` (stereo not drawn) [CPD-002], for which the half-maximal effective concentration (EC50) amounted to 794 nM in data set [1] (setting [3]), 95 nM in the data set with DENV-2 NGC, 2090 nM in data set [2] and 8210 nM in the data set on DENV-4 strain H241. Also, the figures for the 50% cytotoxic concentration (CC50) in the data set with Vero-B cells, in “in vitro” and in “in vitro” (CC50 (μM)) were above 120000 nM, above 120 µM and above 120 µM, respectively.

`COc1cccc(NC(C(=O)c2nn(C)cc2-c2ccccc2)c2cccnc2)c1` (stereo not drawn) [CPD-003]: the EC50 in the data set with DENV-2 NGC was 1660 nM; in data set [2] it was 7010 nM. Further, the 50% cytotoxic concentration (CC50) was 104000 nM in the data set on Vero-B cells and above 125 µM in “in vitro” (CC50 (μM)).

Take `COc1cccc(NC(C(=O)c2nn(C)cc2-c2ccccc2)c2cncc(F)c2)c1` (stereo not drawn) [CPD-004]: the results for the EC50 (in the data set on DENV-2 NGC; in data set [2]) were 1550 nM and 9780 nM, respectively. Also, the CC50 in the data set with Vero-B cells is above 120000 nM; in the data set “in vitro” (CC50 (μM)), above 120 µM.

`COc1cccc(NC(C(=O)c2nn(C)cc2-c2ccccc2F)c2ccccc2)c1` (stereo not drawn) [CPD-005]: the EC50 in the data set with DENV-2 NGC stood at 383 nM. Also, the CC50 in the data set “in vitro” (CC50 (μM)) is above 120 µM.

As to `COc1cccc(NC(C(=O)c2nn(C)cc2-c2cccc(F)c2)c2ccccc2)c1` (stereo not drawn) [CPD-006], the 50% effective concentration (EC50) in the data set with DENV-2 NGC amounted to 517 nM. The CC50 in “in vitro” (CC50 (μM)) is above 120 µM.

As to `COc1cccc(NC(C(=O)c2nn(C)cc2-c2cnn(C)c2)c2ccccc2)c1` (stereo not drawn) [CPD-007], the EC50 in the data set with DENV-2 NGC turned out to be 15500 nM. This molecule also showed a CC50 in the data set “in vitro” (CC50 (μM)) above 125 µM.

Take `COc1cccc(NC(C(=O)c2nn(C)cc2-c2ccccc2)c2ccc(F)cc2)c1` (stereo not drawn) [CPD-008]: the EC50 in data set [1] (setting [3]) was 1010 nM; in the data set on DENV-2 NGC, 96 nM; in data set [2], 2640 nM; in the data set with DENV-4 strain H241, 4740 nM. The CC50 was above 120000 nM with Vero-B cells, above 120 µM in the data set “in vitro” and above 120 µM in “in vitro” (CC50 (μM)).

For the molecule `COc1cccc(NC(C(=O)c2nn(C)cc2-c2cncnc2)c2ccc(C)cc2)c1` (stereo not drawn) [CPD-009], in the data set with DENV-2 NGC, the EC50 stood at 3290 nM. Moreover, the 50% cytotoxic concentration (CC50) in “in vitro” (CC50 (μM)) is above 120 µM.

The molecule `COc1cccc(NC(C(=O)c2nn(C)cc2-c2ccncc2)c2ccc(C)cc2)c1` (stereo not drawn) [CPD-010] returned an EC50 in the data set with DENV-2 NGC of 2110 nM. In addition, the CC50 in “in vitro” (CC50 (μM)) was above 121 µM.

Regarding `COc1cccc(NC(C(=O)c2nn(C)cc2-c2ccccc2)c2cnc(OC)cn2)c1` (stereo not drawn) [CPD-011], the midpoint of the response with DENV-2 NGC, the EC50, lay at 745 nM. For the same molecule, the cytotoxic concentration (CC50) in “in vitro” (CC50 (μM)) was above 116 µM.

In the case of `COc1cncc(NC(C(=O)c2nn(C)cc2-c2ccccc2)c2ccc(OC)nc2)c1` (stereo not drawn) [CPD-012], in the data set on DENV-2 NGC, a half-maximal effect (EC50) was put at 71300 nM. Also, the CC50 in “in vitro” (CC50 (μM)) was above 116 µM.

Take `COc1cccc(NC(C(=O)c2nn(C)cc2-c2ccccc2)c2cc3ccccn3n2)c1` (stereo not drawn) [CPD-013]: the results for the EC50 (in the data set with DENV-2 NGC; in data set [2]) were 343 nM and 2240 nM, respectively. The CC50 in the data set on Vero-B cells was above 114000 nM; in “in vitro” (CC50 (μM)), above 114 µM.

`COc1cccc(NC(C(=O)c2nn(C)cc2-c2ccc(C#N)cc2)c2cc3ccccn3n2)c1` (stereo not drawn) [CPD-014] yielded an EC50 in the data set with DENV-2 NGC of 2290 nM. The molecule further registered a CC50 in the data set “in vitro” (CC50 (μM)) above 108 µM.

Turning to `COc1cc(NC(C(=O)c2nn(C)cc2-c2ccccc2)c2ccc(C)cc2)cc(OC)c1` (stereo not drawn) [CPD-015], the EC50 in data set [1] (DENV3, Vero B, 168 h) came out at 1190 nM; with DENV-2 NGC, 16 nM; in data set [2], 132 nM; in the data set with DENV-4 strain H241, 3150 nM. The 50% cytotoxic concentration (CC50) with Vero-B cells is above 113000 nM; in the data set “in vitro”, above 113 µM; in the data set “in vitro” (CC50 (μM)), above 113 µM.

As to `COc1cccc(NC(C(=O)c2nn(C)cc2-c2ccc3scnc3c2)c2ccc(OC)nc2)c1` (stereo not drawn) [CPD-016], the concentration giving a half-maximal response (EC50) in the data set on DENV-2 NGC worked out at 1870 nM. Moreover, the CC50 in “in vitro” (CC50 (μM)) was above 103 µM.

Consider `COc1cccc(NC(C(=O)c2nn(C)cc2-c2ccc3c(c2)CCO3)c2ccc(OC)nc2)c1` (stereo not drawn) [CPD-017], for which, in the data set with DENV-2 NGC, the EC50 turned out to be 1640 nM. Moreover, the CC50 in “in vitro” (CC50 (μM)) is above 106 µM.

For `COc1cccc(NC(C(=O)c2nn(C)cc2-c2cccs2)c2ccc(OC)nc2)c1` (stereo not drawn) [CPD-018], the concentration for a half-maximal effect (EC50) in the data set on DENV-2 NGC was determined as 1270 nM. The molecule also displayed a half-maximal cytotoxic concentration (CC50) in the data set “in vitro” (CC50 (μM)) above 115 µM.

`COc1cccc(NC(C(=O)c2nn(C)cc2-c2ccc(C)nc2)c2ccccc2)c1` (stereo not drawn) [CPD-019] returned an EC50 with DENV-2 NGC of 39900 nM. The molecule further showed a CC50 in the data set “in vitro” (CC50 (μM)) of 80 µM.

In turn, `COc1cccc(NC(C(=O)c2nn(C)cc2-c2c(C)noc2C)c2ccc(C)cc2)c1` (stereo not drawn) [CPD-020] gave a concentration giving a half-maximal response (EC50) in the data set with DENV-2 NGC of 13200 nM. This molecule also came in with a cytotoxic concentration (CC50) in “in vitro” (CC50 (μM)) above 116 µM.

Turning to `COc1cccc(NC(C(=O)c2n[nH]cc2-c2ccccc2)c2ccccc2)c1` (stereo not drawn) [CPD-023], the EC50 in the data set with DENV-2 NGC stood at 443 nM; in data set [2], 939 nM.

For the molecule `COc1cccc(NC(C(=O)c2c[nH]cc2-c2ccccc2)c2ccccc2)c1` (stereo not drawn) [CPD-024], the EC50 in data set [1] (setting [3]) was found to be 1910 nM; in the data set with DENV-2 NGC, 207 nM; in data set [2], 1530 nM; in the data set on DENV-4 strain H241, 1600 nM. The molecule further had a 50% cytotoxic concentration (CC50) in “in vitro” of 10 µM.

Turning to `COc1cccc(NC(C(=O)c2cscc2-c2ccccc2)c2ccccc2)c1` (stereo not drawn) [CPD-025], in data set [2], the EC50 came to 3630 nM. Moreover, the half-maximal cytotoxic concentration (CC50) in “in vitro” (CC50 (μM)) was above 125 µM.

Molecule `COc1cccc(NC(C(=O)c2cn(C)nc2-c2ccccc2)c2ccccc2)c1` (stereo not drawn) [CPD-026] yielded an EC50 in data set [2] of 2390 nM. The molecule further had a 50% cytotoxic concentration (CC50) in “in vitro” (CC50 (μM)) above 126 µM.

Turning to `COc1cc(NC(C(=O)N2CCCCC2c2ccccc2)c2ccc(C)cc2)cc(OC)c1` (stereo not drawn) [CPD-027], the EC50 in data set [1] (setting [3]) worked out at 7230 nM; with DENV-2 NGC, 1220 nM; in data set [2], 2080 nM.

In the case of `COc1cc(NC(C(=O)N2CCCC2c2ccccc2)c2ccc(C)cc2)cc(OC)c1` (stereo not drawn) [CPD-028], the concentration for a half-maximal effect (EC50) with DENV-2 NGC stood at 221 nM; in data set [2], 17200 nM; in the data set with DENV-4 strain H241, 6670 nM. Further, the results for the CC50 in the data set on Vero-B cells, in “in vitro” and in “in vitro” (CC50 (μM)) were 70000 nM, above 116 µM and above 116 µM, respectively.

`COc1cc(NC(C(=O)N2CCN(C)CC2c2ccccc2)c2ccc(C)cc2)cc(OC)c1` (stereo not drawn) [CPD-238] returned an EC50 in the data set with DENV-2 NGC of 2820 nM. This molecule showed a CC50 in the data set “in vitro” (CC50 (μM)) above 99 µM.

`COc1cc(NC(C(=O)N2CCCCCC2c2ccccc2)c2ccc(C)cc2)cc(OC)c1` (stereo not drawn) [CPD-242] displayed an EC50 in the data set with DENV-2 NGC of 1160 nM. In addition, the CC50 in the data set “in vitro” (CC50 (μM)) was above 109 µM.

As for `COc1cc(NC(C(=O)c2cn(C)c(Br)c2-c2ccccc2)c2ccccc2)cc(OC)c1` (stereo not drawn) [CPD-311], the concentration giving a half-maximal response (EC50) in data set [1] (setting [3]) came to 266 nM; in the data set with DENV-2 NGC, 47 nM; in data set [2], 16 nM. For the same molecule, the CC50 was above 99000 nM in the data set with Vero-B cells and above 99 µM in “in vitro” (CC50 (μM)).

As to `COc1cc(NC(C(=O)N2CCOCC2c2ccccc2)c2ccc(C)cc2)cc(OC)c1` (stereo not drawn) [CPD-312], the EC50 with DENV-2 NGC was 5650 nM. The 50% cytotoxic concentration (CC50) in “in vitro” (CC50 (μM)) is above 112 µM.

Take `COc1cc(NC(C(=O)N2CCSCC2c2ccccc2)c2ccc(C)cc2)cc(OC)c1` (stereo not drawn) [CPD-313]: in the data set with DENV-2 NGC, the midpoint of the response, the EC50, lay at 951 nM. This molecule displayed a cytotoxic concentration (CC50) in “in vitro” (CC50 (μM)) above 108 µM.

In the case of `COc1cc(NC(C(=O)N2CCS(=O)(=O)CC2c2ccccc2)c2ccc(C)cc2)cc(OC)c1` (stereo not drawn) [CPD-314], the EC50 with DENV-2 NGC came to 4470 nM. Moreover, the CC50 in “in vitro” (CC50 (μM)) was above 101 µM.
